Square brackets hold non-standard residues; d marks the D form. Peptide text beside a SMILES is read from it. * marks the point of attachment. X1 = COc1ccc(C[C@H](N*)[C@@H](O)CC(=O)O)cc1; Sta = CC(C)C[C@H](N)[C@@H](O)CC(=O)O; Isobutyryl = CC(C)C(=O)*; Propionyl = CCC(=O)*

Broadly, the IC50 is the concentration that gives 50% inhibition. A higher IC50 goes with lower potency.

For one series, the target named is T1, HIV-1 protease (Human immunodeficiency virus type 1 group M subtype B, UniProt P04585).
T1 construct: HIV-1 PR is a 22 kDa dimeric aspartyl protease
Briefly: Inhibition of HIV-1 protease activity. Format: biochemical. An excerpt:
Analysis of the inhibition of HIV-1 protease activity

A short description of series [1]: Cytotoxic activity assay, U2OS. Conditions: human, U2OS osteosarcoma cells.
Protocol: (§1) Cervical cancer (Hela), hepatocellular carcinoma (HepG2), and human osteosarcoma (U2OS) cell lines were obtained from the National Infrastructure of Cell Line Resource (Beijing, China).
(§2) This was measured using the previously described protocol.[34]
The nature of series [2]: Cytotoxic activity assay, Hela. The note with it: human, HeLa cervical cancer cells.
Protocol: as §1, §2
Series [3] can be described thus: Cytotoxic activity assay, HepG2. The note with it: human, HepG2 hepatocellular carcinoma cells.
Protocol: as §1, §2

With `COc1ccc(C[C@H](NC(=O)[C@H](C)NC(=O)C[C@H](O)[C@H](CC(C)C)NC(=O)[C@@H](NC(=O)[C@@H](NC(=O)C(C)C)C(C)C)C(C)C)[C@@H](O)CC(=O)O)cc1` [Compound 1, ^iBu-L-Val^1-L-Val^2-(3S,4S)-Sta-L-Ala-(3S,4S)-Ahmppa] (Isobutyryl-VV[Sta]A-X1), at HIV-1 protease, the IC50 is 1.79 nM.

On to `CC(C)C[C@H](NC(=O)[C@@H](NC(=O)[C@@H](NC(=O)C(C)C)C(C)C)C(C)C)[C@@H](O)CC(=O)N[C@@H](C)C(=O)O` [Compound 2, ^iBu-L-Val^1-L-Val^2-(3S,4S)-Sta-L-Ala] (Isobutyryl-VV[Sta]A-OH), for which, at HIV-1 protease, the IC50 is 3190 nM.

As for `CC(C)CCCCC(=O)N[C@H]1CCN(CC(=O)O)C1=O` [Compound 3, (−)-(S)-2-[3-(6-methylheptanamido)-2-oxopyrrolidin-1-yl]acetic acid], on HIV-1 protease, the IC50 was more than 10000 nM. For the same compound, on HIV-1 protease (preliminary in vitro assay), the “inhibitory activity against HIV-1 protease (in words)” value was “inactive”.

On to `CCC(=O)N[C@H](C(=O)N[C@H](C(=O)N[C@@H](CC(C)C)[C@@H](O)CC(=O)N[C@@H](C)C(=O)N[C@@H](CC(C)C)[C@@H](O)CC(=O)O)C(C)C)C(C)C` [Compound 5, pepstatin Pr] (Propionyl-VV[Sta]A[Sta]-OH), for which, at HIV-1 protease, the IC50 came out at 22.3 nM.

`CC(C)C[C@H](NC(=O)[C@H](C)NC(=O)C[C@H](O)[C@H](CC(C)C)NC(=O)[C@@H](NC(=O)[C@@H](NC(=O)C(C)C)C(C)C)C(C)C)[C@@H](O)CC(=O)O` [Compound 6, pepsinostreptin] (Isobutyryl-VV[Sta]A[Sta]-OH) displayed an IC50 at HIV-1 protease of 9.9 nM.

`COC(=O)C[C@H](O)[C@H](CC(C)C)NC(=O)[C@H](C)NC(=O)C[C@H](O)[C@H](CC(C)C)NC(=O)[C@@H](NC(=O)[C@@H](NC(C)=O)C(C)C)C(C)C` [Compound 7, pepstatin Ac methyl ester] (Ac-VV[Sta]A[Sta]-OMe): on HIV-1 protease, the IC50 was found to be 203 nM. This IC50 lies about 21-fold higher than the previous one.

Regarding `CCC(=O)N[C@H](C(=O)N[C@H](C(=O)N[C@@H](CC(C)C)[C@@H](O)CC(=O)N[C@@H](C)C(=O)N[C@@H](CC(C)C)[C@@H](O)CC(=O)OC)C(C)C)C(C)C` [Compound 8, pepstatin Pr methyl ester] (Propionyl-VV[Sta]A[Sta]-OMe), at HIV-1 protease, half-maximal inhibition (IC50) was put at 139 nM.

Turning to `COC(=O)C[C@H](O)[C@H](CC(C)C)NC(=O)[C@H](C)NC(=O)C[C@H](O)[C@H](CC(C)C)NC(=O)[C@@H](NC(=O)[C@@H](NC(=O)C(C)C)C(C)C)C(C)C` [Compound 9, pepsinostreptin methyl ester] (Isobutyryl-VV[Sta]A[Sta]-OMe), the IC50 at HIV-1 protease is 782 nM. This IC50 is about 5.6-fold higher than that of the compound before.

Consider `COc1cccc2c1C(=O)c1c(O)c3c(c(O)c1C2=O)C[C@@](O)(C(=O)CO)C[C@@H]3O[C@H]1C[C@H](N)[C@H](O)[C@H](C)O1` [doxorubicin], for which the values for the IC50 in series [1], in series [2] and in series [3] were 2780 nM, 1420 nM and 1560 nM, respectively.
